Measured values as given in PMC8428694, “Structural characterization of the Plasmodium falciparum lactate transporter PfFNT alone and in complex with antimalarial compound MMV007839 reveals its inhibition mechanism” (PLoS Biology, 2021).

Experiments:
[1] = target: T1, P. falciparum formate–nitrite transporter (PfFNT) (Plasmodium falciparum, UniProt O77389); assay: ITC with purified protein; cryo-EM structure of the complex at […] Å; type: binding
T1 construct: gene PF3D7_0316600; full-length PfFNT, N-terminal Strep-tag; residues 7 to 293 modelled (apo structure); homopentamer

[2] = target: T2, P. falciparum formate–nitrite transporter (PfFNT) (Plasmodium falciparum, UniProt O77389, T106A); assay: ITC with purified mutant protein; type: binding
T2 construct: gene PF3D7_0316600; PfFNT T106A mutant, purified as wild type (full-length, N-terminal Strep-tag)

[3] = target: the molecule itself; assay: cryo-EM structure; purified PfFNT in GDN detergent (25 mM Tris pH 8.0, 150 mM NaCl, 0.06% GDN), incubated with 250 mM sodium lactate before grid preparation (no lactate density: apo form); C5 symmetry; 2.3 Å

Molecule `COc1ccc2c(c1)OC(O)(C(F)(F)C(F)(F)F)CC2=O` (stereo not drawn) [MMV007839] has a Kd [1] of ~7.18 nM and a Kd [2] of 80.8 nM.

B1: Plasmodium falciparum formate–nitrite transporter (PfFNT) (natural protein, P. falciparum, UniProt O77389 1-309, looked up)
chain: MPPNNSKYVLDPVSIKSVCGGEESYIRCVEYGKKKAHYSNLNLLAKAILAGMFVGLCAHASGIAGGLFYYHKLREIVGASMSVFVYGFTFPIAFMCIICTGSDLFTGNTLAVTMALYEKKVKLLDYLRVMTISLFGNYVGAVSFAFFVSYLSGAFTNVHAVEKNHFFQFLNDIAEKKVHHTFVECVSLAVGCNIFVCLAVYFVLTLKDGAGYVFSVFFAVYAFAIAGYEHIIANIYTLNIALMVNTKITVYQAYIKNLLPTLLGNYIAGAIVLGLPLYFIYKEHYYNFERSKRDNNDAQMKSLSIELRN
notes: PfFNT, lactate transporter of P. falciparum, UniProt O77389, encoded by pf3D7_0316600; full-length protein from codon-optimized cDNA; residues 7 to 293 of each protomer were assigned to the density map; Homopentamer in the cryo-EM structures; also called P. falciparum lactate transporter; wild-type PfFNT
In the case of B1, the “stoichiometry N” value [3] is reported as 5.
